Experimental data as given in US12629383B2, “Cannabinoid compositions with high solubility and bioavailability” (priority 2020, dated 2026).
Read-outs that look alike come from different tables or passages of the source.

What was measured:
[1] = Dissolution study, USP type II apparatus, HPLC quantification of CBD released; format: physicochemical; details: 900 ml pH 6.8 phosphate buffer
Protocol: Dissolution study was performed in 900 ml volume with a USP type II apparatus at pH 6.8 phosphate buffer. HPLC analysis (as per below) was used to quantify the amount of CBD released at each time point.
• Method: High Performance Liquid Chromatography (HPLC); Shimadzu LC-2040 3D Nexera-i • Wave lenght: 220 nm • Column 100 mm*4.6 mm; 5 μm C18 (InertSustain) • Column Temperature: 25° C. • AutoSampler Temperature: 5° C. • Injection Volume: 5 μL • Flow rate: 1.0 mL/min • Mobile Phase: Methanol:Water (85:[…]) • Diluent: Methanol • Run Time: Cannabidiol=3.7 min

[2] = Animal study (pharmacokinetics), gavage, CBD blood concentration by HPLC; format: in vivo; details: rat
Protocol: According to the results of the dissolution study, compositions were prepared by adhering to the ratios of the present invention.
6 rats weighing 250+/−20 grams were used per each study group and a total of 5 groups were used. The compositions were administered by gavage at the human dose equivalent of 40 mg CBD per composition.
The results were analyzed by blood draws at each of the time points over an 8 hour period. An HPLC system was used to determine the blood concentration of CBD at the specified time points. The blood concentrations were given as (μg/mL)
The average CBD blood concentration of the groups were used to determine the pharmacokinetic parameters of Cmax, AUC and Tmax.

**Q.** With `C=C(C)[C@@H]1CCC(C)=C[C@H]1c1c(O)cc(CCCCC)cc1O` [CBD API, Cannabidiol] as the compound, how does the “% CBD API Released” value ([1]; 5 min) read?
**A.** 1,89%

**Q.** What about the “% CBD API Released” value ([1]; 10 min) of the same compound?
**A.** 1,89%

**Q.** What about the “% CBD API Released” value ([1]; 15 min) of the same compound?
**A.** 2,05%

**Q.** And the “% CBD API Released” value ([1]; 30 min)?
**A.** 2%

**Q.** What about the “% CBD API Released” value ([1]; 60 min) of the same compound?
**A.** 2,01%

**Q.** What about the “% CBD API Released” value ([1]; 120 min) of the same compound?
**A.** 1,97%

**Q.** What about the “% CBD API Released” value ([1]; 180 min) of the same compound?
**A.** 2,2%

**Q.** And the “% CBD API Released” value ([1]; 240 min)?
**A.** 2,32%

**Q.** And the concentration at 0 h ([2]; blood, oral, 40 mg CBD (human dose equivalent), hour 0, rats, human dose equivalent of 40 mg CBD, group average)?
**A.** 0 ng/mL

**Q.** What about the concentration at […] ([2]; blood, oral, 40 mg CBD (human dose equivalent), hour 0.083, rats, human dose equivalent of 40 mg CBD, group average) of the same compound?
**A.** 8 ng/mL

**Q.** And the concentration at 0.25 h ([2]; blood, oral, 40 mg CBD (human dose equivalent), hour 0.25, rats, human dose equivalent of 40 mg CBD, group average)?
**A.** 11 ng/mL

**Q.** What about the concentration at 0.5 h ([2]; blood, oral, 40 mg CBD (human dose equivalent), hour 0.5, rats, human dose equivalent of 40 mg CBD, group average) of the same compound?
**A.** 15 ng/mL

**Q.** And the concentration at 1 h ([2]; blood, oral, 40 mg CBD (human dose equivalent), hour 1, rats, human dose equivalent of 40 mg CBD, group average)?
**A.** 13 ng/mL

**Q.** What about the concentration at 2 h ([2]; blood, oral, 40 mg CBD (human dose equivalent), hour 2, rats, human dose equivalent of 40 mg CBD, group average) of the same compound?
**A.** 11 ng/mL

**Q.** And the concentration at 4 h ([2]; blood, oral, 40 mg CBD (human dose equivalent), hour 4, rats, human dose equivalent of 40 mg CBD, group average)?
**A.** 8 ng/mL

**Q.** And the concentration at 8 h ([2]; blood, oral, 40 mg CBD (human dose equivalent), hour 8, rats, human dose equivalent of 40 mg CBD, group average)?
**A.** 6 ng/mL

**Q.** What about the Tmax ([2]; blood, po, 40 mg CBD (human dose equivalent), rats, read-out: Tmax after administration (converted)) of the same compound?
**A.** 30 min

**Q.** What about the AUC(0-t) ([2]; blood, po, rats, human dose equivalent of 40 mg CBD) of the same compound?
**A.** 71 ng·h/mL

**Q.** And the Tmax ([2]; blood, po, rats, human dose equivalent of 40 mg CBD, read-out: Tmax)?
**A.** 30 min

**Q.** And the Cmax ([2]; po, rats, human dose equivalent of 40 mg CBD, from average blood concentration)?
**A.** 15 ng/mL
